Earlier results, collected in article PMC7094870 (ACS chemical biology, 2020).

Test system: platinum resistant ovarian cancer and non-small cell lung cancer
Conditions: patients; cited from earlier work

COc1ccc(C[C@H]2NC(=O)/C=C/C[C@@H]([C@H](C)[C@H]3O[C@@H]3c3ccccc3)OC(=O)[C@H](CC(C)C)OC(=O)C(C)(C)CNC2=O)cc1Cl [cryptophycin-52]
dose limiting toxicity in clinical trials: dose limiting peripheral neuropathy
